Entries after “also recorded” stand apart in the source; their conditions may differ.

Data set [1] relates to Human astrocyte cell line (SVG). The data set is described as follows: VEGF and crystallin immunostaining in cultured astrocytes exposed to 3-nitropropionic acid. Type of data set: cell-based. As to conditions: 10 μM 3-NP. As for the experimental part: Human astrocyte cell line (SVG) was treated with 10 μM 3-NP, and cells were harvested for immunostaining with antibodies to VEGF and crystallins after 6, 12, and 24 hours. […] Fluorescence with both of the antibodies is increased after 12 hours of exposure to 3-NP in culture. […] Nuclei were counterstained with DAPI.
It has been shown that astrocytes are sensitive to hypoxia, which induces them to release VEGF (Chow et al., 2001; Sandercoe et al., 2003). To determine if astrocytes also express β- and γ-crystallins in response to hypoxia, 3-nitropropionic acid, an irreversible inhibitor of mitochondrial succinate dehydrogenase activity was used (Cavaliere et al., Neurochem Int 38:189-197, 2001). It can be considered a model substance to study hypoxic neuronal damage (Riepe et al., Neurosci Lett 211:9-12, 1996).
The SVG cell line used in this study was derived from human fetal astrocytes transformed with SV40 large T antigen (Major et al., J Biol Chem 278:13512-13519, 1985; Tornatore et al., Cell Transplant 5:145-163, 1996). Cultures of the human fetal astrocyte cell line (SVG) were maintained in Dulbecco's modified Eagle's medium with 2 mM L-glutamine, 10% fetal bovine serum, and streptomycin penicillin-fungizone solutions. Cells grown in 60-mm dishes were treated with 10 μM 3-nitropropionic acid (3NP) for 6, 12, and 24 hours at 37° C. and then fixed with paraformaldehyde (4%) for 15 minutes and blocked with 3% BSA at 4° C. overnight. The fixed cells were processed following standard techniques for immunofluorescence using VEGF and crystallin antibodies as indicated earlier.

Data set [2] deals with HUVEC (Human umbilical vein endothelial cells). The data set is described as follows: Three-dimensional tube formation assay of HUVEC on Matrigel. The format is cell-based. To be noted: HUVEC on Matrigel treated with purified proteins (crystallins 0.5 μg/ml), vs controls. The source says:
In order to better understand the functional role of β/γ-crystallins in vascular remodeling, HUVEC (Human umbilical vein endothelial cells) were established in culture. HUVEC differentiation into tube-like structures in three dimensional Matrigel cultures has been commonly used as a model system to studying angiogenesis (Edelman et al. Exp. Eye Res. 80(2): 249-58, 2005; Xin et al. J. Biol. Chem. 274(13): 9116-21, 1999). After plating HUVEC onto Matrigel, the cells differentiated to form tubes and a capillary-like network at the minimum seeding density of 5×10^3 cells/well (FIGS. 20A-20F). These differentiated cells form tubes and express crystallins (FIGS. 21A and 21B).
The effect of β/γ crystallins and VEGF on HUVEC tube formation and regression was examined. VEGF protein used in this study was purchased from R&D Systems (Minneapolis, Minn.) and the polyclonal antibody was from Santa Cruz Biotechnology (Santa Cruz, Calif.). To prepare the crystallin proteins, lenses dissected from bovine eyes were homogenized in 7 volumes of 0.05M Tris buffer, pH 7.4 containing 0.1M KCl, 10 mM 2-mercaptoethanol and 0.02% NaN3. […] Fractions were collected and peaks analyzed by SDS-PAGE. […]
The cells were exposed to 0.2 μg/ml to 2 μg/ml of crystallin proteins, with a maximum effect at 0.5 μg/ml with negligible cell death as determined by trypan-blue exclusion. […]

Data set [3] deals with Human Retinal Endothelial Cells (HREC). The data set is described as follows: Matrigel tube formation in cultured human retinal endothelial cells. The format is cell-based. To be noted: exogenously applied protein, Matrigel pre-coated plates, VEGF omitted from media supplement. The protocol:
HREC were cultured in EGM2MV media according to the manufacturer's protocol either in the absence (FIG. 25A), or presence (FIG. 25B) of pre-coated Matrigel matrix (Cambrex). (4× magnification)
FIG. 28 is a graph showing the effect of Exogenous γ-crystallins, VEGF, and PEDF on Tube Length in Cultured Human Retinal Endothelial Cells (HREC): HREC grown on Matrigel-coated tissue culture plates in EGM2MV media with VEGF omitted from the media supplement. Cells were treated with BSA (control), 0.2 μg/ml VEGF, 0.6 μg/ml VEGF, concentrations of […] ranging from 0.5 μg/ml to 1.0 μg/ml, or 0.2 μg/ml PEDF. Average tube length was calculated after measuring all of the tubes formed in three separate optical fields from 7 individual culture dishes.
As reported above, a functionally significant effect of β/γ crystallins on vascular remodeling the effect of β/γ crystallins was established on human umbilical vein endothelial cells (HUVEC) in culture. Because the behavior of vascular endothelial cells varies according to their source and the resident tissue environment, the effect of β/γ crystallins on cultured human retinal endothelial cells (HREC) was subsequently analyzed. […] FIG. 28 quantifies these effects.

Data set [4] has the same test system. As to conditions: relatively high dose tested (0.2 μg/ml PEDF); cited from earlier work.

`O=C(O)CC[N+](=O)[O-]` [3-NP, 3-nitropropionic acid]: in data set [1] (6 hours), the “VEGF expression (immunostaining)” value is listed as “induction; also recorded: distinct cytoplasmic staining”; the “β- and γ-crystallin expression (immunostaining)” value is “induction; also recorded: distinct cytoplasmic staining”. Further, in data set [1] (12 hours), the VEGF antibody fluorescence entry is “increased” and the γ-crystallin antibody fluorescence entry is “increased”. Further, in data set [1] (24 hours), the cell death result was “most of the cells have died”.
Consider VEGF, for which the “tube length (tube processes)” value in data set [2] is listed as “longer tubes”. Besides, the “HREC vessel-like tube formation” value in data set [3] is given as “enhanced”.

B1: PEDF: PEDF added at 0.2 μg/ml to HREC cultures (protein, UniProt P36955 20-418, looked up)
Pigment epithelium-derived …: QNPASPPEEGSPDPDSTGALVEEEDPFFKVPVNKLAAAVSNFGYDLYRVRSSTSPTTNVLLSPLSVATALSALSLGAEQRTESIIHRALYYDLISSPDIHGTYKELLDTVTAPQKNLKSASRIVFEKKLRIKSSFVAPLEKSYGTRPRVLTGNPRLDLQEINNWVQAQMKGKLARSTKEIPDEISILLLGVAHFKGQWVTKFDSRKTSLEDFYLDEERTVRVPMMSDPKAVLRYGLDSDLSCKIAQLPLTGSMSIIFFLPLKVTQNLTLIEESLTSEFIHDIDRELKTVQAVLTVPKLKLSYEGEVTKSLQEMKLQSLFDSPDFSKITGKPIKLTQVEHRAGFEWNEDGAGTTPSPGLQPAHLTFPLDYHLNQPFIFVLRDTDTGALLFIGKILDPRGP
Regarding B1, in data set [4], the tube formation entry is on record as “stimulate tube formation”.

The values above are taken from US20100004168A1, “Use of Crystallin For The Modulation of Angiogenesis” (The Johns Hopkins University, priority 2006, published 2010).
